Measurements: ChEMBL document CHEMBL1201862, “PubChem BioAssay data set” (2004)
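Following 48 hours of exposure in 96-well plates, responses at five concentrations were used to interpolate endpoints linearly. The concentration for 50% growth inhibition is given as GI50.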 The source made the active and inactive calls. No stated cut-off is given here; in the data, active = GI50 up to about 1.1 µM and inactive = higher.

Legend:
Experiment in all cases: growth of human tumour cells (NCI), 48 h
IGROV-1 = test system: IGROV-1
SNB-19 = test system: SNB-19
SN12C = test system: SN12C
M19-MEL = test system: M19-MEL
HL-60 = test system: HL-60
ACHN = test system: ACHN
EKVX = test system: EKVX
SK-OV-3 = test system: SK-OV-3
HCT-15 = test system: HCT-15
SK-MEL-2 = test system: SK-MEL-2
OVCAR-3 = test system: OVCAR-3
RXF 631 = test system: RXF 631
NCI-H226 = test system: NCI-H226
SF-295 = test system: SF-295
A549 = test system: A549
RPMI-8226 = test system: RPMI-8226
SF-539 = test system: SF-539
NCI-H460 = test system: NCI-H460
NCI-H23 = test system: NCI-H23
HOP-62 = test system: HOP-62
CCRF-CEM = test system: CCRF-CEM
UACC-257 = test system: UACC-257
UO-31 = test system: UO-31
COLO 205 = test system: COLO 205
KM12 = test system: KM12
CAKI-1 = test system: CAKI-1
NCI-H522 = test system: NCI-H522
OVCAR-4 = test system: OVCAR-4
DLD-1 = test system: DLD-1
HT-29 = test system: HT-29
MOLT-4 = test system: MOLT-4
LXFL 529 = test system: LXFL 529
SW-620 = test system: SW-620
OVCAR-8 = test system: OVCAR-8
SK-MEL-28 = test system: SK-MEL-28
TK-10 = test system: TK-10
DMS-114 = test system: DMS-114
SF-268 = test system: SF-268
Malme-3M = test system: Malme-3M
RXF 393 = test system: RXF 393
SK-MEL-5 = test system: SK-MEL-5
XF498 = test system: XF498
UACC-62 = test system: UACC-62
HOP-92 = test system: HOP-92
HOP-18 = test system: HOP-18
HCT-116 = test system: HCT-116
SNB-75 = test system: SNB-75
SR = test system: SR
U-251 = test system: U-251
786-0 = test system: 786-0
K562 = test system: K562
M14 = test system: M14
DMS-273 = test system: DMS-273
KM-20L2 = test system: KM-20L2
LOX IMVI = test system: LOX IMVI
OVCAR-5 = test system: OVCAR-5
HCC 2998 = test system: HCC 2998
A498 = test system: A498
SNB-78 = test system: SNB-78

With `COC1=CC(=O)c2ccccc2C1(C)C1=NC(C)(C)CO1` (stereo not given) the GI50 (IGROV-1) was > 100 µM (inactive), the GI50 (SNB-19) was > 100 µM (inactive) and the GI50 (SN12C) was > 100 µM (inactive). For the same compound, the GI50 (M19-MEL) was > 100 µM (inactive), the GI50 (HL-60) was > 100 µM (inactive) and the GI50 (ACHN) was > 100 µM (inactive). The GI50 (EKVX) was > 100 µM (inactive), the GI50 (SK-OV-3) was > 100 µM (inactive) and the GI50 (HCT-15) was greater than 100 µM. For the same compound, the GI50 (SK-MEL-2) was > 100 µM (inactive), the GI50 (OVCAR-3) was > 100 µM (inactive) and the GI50 (RXF 631) was > 100 µM (inactive). For the same compound, the GI50 (NCI-H226) was > 100 µM (inactive), the GI50 (SF-295) was > 100 µM (inactive) and the GI50 (A549) was > 100 µM (inactive). The GI50 (RPMI-8226) was > 100 µM (inactive), the GI50 (SF-539) was > 100 µM (inactive) and the GI50 (NCI-H460) was > 100 µM (inactive). The GI50 (NCI-H23) was > 100 µM (inactive), the GI50 (HOP-62) was > 100 µM (inactive) and the GI50 (CCRF-CEM) was > 100 µM (inactive). The GI50 (UACC-257) was > 100 µM (inactive), the GI50 (UO-31) was > 100 µM (inactive) and the GI50 (COLO 205) was > 100 µM (inactive). For the same compound, the GI50 (KM12) was > 100 µM (inactive), the GI50 (CAKI-1) was > 100 µM (inactive) and the GI50 (NCI-H522) was > 100 µM (inactive). The GI50 (OVCAR-4) was > 100 µM (inactive), the GI50 (DLD-1) was > 100 µM (inactive) and the GI50 (HT-29) was > 100 µM (inactive). The GI50 (MOLT-4) was > 100 µM (inactive), the GI50 (LXFL 529) was > 100 µM (inactive) and the GI50 (SW-620) was > 100 µM (inactive). For the same compound, the GI50 (OVCAR-8) was > 100 µM (inactive), the GI50 (SK-MEL-28) was > 100 µM (inactive) and the GI50 (TK-10) was > 100 µM (inactive). The GI50 (DMS-114) was > 100 µM (inactive), the GI50 (SF-268) was > 100 µM (inactive) and the GI50 (Malme-3M) was > 100 µM (inactive). The GI50 (RXF 393) was > 100 µM (inactive), the GI50 (SK-MEL-5) was > 100 µM (inactive) and the GI50 (XF498) was > 100 µM (inactive). For the same compound, the GI50 (UACC-62) was > 100 µM (inactive), the GI50 (HOP-92) was > 100 µM (inactive) and the GI50 (HOP-18) was > 100 µM (inactive). For the same compound, the GI50 (HCT-116) was > 100 µM (inactive), the GI50 (SNB-75) was > 100 µM (inactive) and the GI50 (SR) was > 100 µM (inactive). The GI50 (U-251) was > 100 µM (inactive), the GI50 (786-0) was > 100 µM (inactive) and the GI50 (K562) was > 100 µM (inactive). The GI50 (M14) was > 100 µM (inactive), the GI50 (DMS-273) was > 100 µM (inactive) and the GI50 (KM-20L2) was > 100 µM (inactive).
`O=C1NC2(O)c3ccccc3C(=O)C2(O)N1c1ccccc1` (stereo not given) was tested, and the GI50 (IGROV-1) was > 100 µM (inactive), the GI50 (SNB-19) was > 100 µM (inactive) and the GI50 (M19-MEL) was > 100 µM (inactive). The GI50 (HL-60) was > 100 µM (inactive), the GI50 (EKVX) was > 100 µM (inactive) and the GI50 (SK-OV-3) was > 100 µM (inactive). The GI50 (HCT-15) was greater than 100 µM, the GI50 (SK-MEL-2) was > 100 µM (inactive) and the GI50 (OVCAR-3) was > 100 µM (inactive). The GI50 (RXF 631) was > 100 µM (inactive), the GI50 (SF-295) was > 100 µM (inactive) and the GI50 (A549) was > 100 µM (inactive). The GI50 (RPMI-8226) was > 100 µM (inactive), the GI50 (SF-539) was > 100 µM (inactive) and the GI50 (NCI-H460) was > 100 µM (inactive). The GI50 (NCI-H23) was > 100 µM (inactive), the GI50 (CCRF-CEM) was > 100 µM (inactive) and the GI50 (UACC-257) was > 100 µM (inactive). For the same compound, the GI50 (UO-31) was > 100 µM (inactive), the GI50 (COLO 205) was > 100 µM (inactive) and the GI50 (KM12) was > 100 µM (inactive). For the same compound, the GI50 (CAKI-1) was > 100 µM (inactive), the GI50 (NCI-H522) was > 100 µM (inactive) and the GI50 (OVCAR-4) was > 100 µM (inactive). The GI50 (DLD-1) was > 100 µM (inactive), the GI50 (HT-29) was > 100 µM (inactive) and the GI50 (MOLT-4) was > 100 µM (inactive). The GI50 (LXFL 529) was > 100 µM (inactive), the GI50 (LOX IMVI) was > 100 µM (inactive) and the GI50 (SW-620) was > 100 µM (inactive). For the same compound, the GI50 (OVCAR-8) was > 100 µM (inactive), the GI50 (SK-MEL-28) was > 100 µM (inactive) and the GI50 (TK-10) was > 100 µM (inactive). The GI50 (DMS-114) was > 100 µM (inactive), the GI50 (SF-268) was > 100 µM (inactive) and the GI50 (Malme-3M) was > 100 µM (inactive). For the same compound, the GI50 (XF498) was > 100 µM (inactive), the GI50 (UACC-62) was > 100 µM (inactive) and the GI50 (OVCAR-5) was > 100 µM (inactive). The GI50 (HOP-92) was > 100 µM (inactive), the GI50 (HOP-18) was > 100 µM (inactive) and the GI50 (HCT-116) was > 100 µM (inactive). The GI50 (SNB-75) was > 100 µM (inactive), the GI50 (SR) was > 100 µM (inactive) and the GI50 (U-251) was > 100 µM (inactive). The GI50 (786-0) was > 100 µM (inactive), the GI50 (K562) was > 100 µM (inactive) and the GI50 (M14) was > 100 µM (inactive). For the same compound, the GI50 (KM-20L2) was > 100 µM (inactive) and the GI50 (HCC 2998) was > 100 µM (inactive).
With `CCC(C(=O)c1ccccc1)C(CCCC(=O)Nc1c(C)cccc1C)N=O` (stereo not given) the GI50 (IGROV-1) was > 100 µM (inactive), the GI50 (SNB-19) was > 100 µM (inactive) and the GI50 (SN12C) was > 100 µM (inactive). The GI50 (M19-MEL) was > 100 µM (inactive), the GI50 (HL-60) was > 100 µM (inactive) and the GI50 (ACHN) was > 100 µM (inactive). The GI50 (EKVX) was > 100 µM (inactive), the GI50 (SK-OV-3) was > 100 µM (inactive) and the GI50 (HCT-15) was greater than 100 µM. For the same compound, the GI50 (SK-MEL-2) was > 100 µM (inactive), the GI50 (OVCAR-3) was > 100 µM (inactive) and the GI50 (RXF 631) was > 100 µM (inactive). For the same compound, the GI50 (A498) was > 100 µM (inactive), the GI50 (NCI-H226) was > 100 µM (inactive) and the GI50 (SF-295) was > 100 µM (inactive). For the same compound, the GI50 (A549) was > 100 µM (inactive), the GI50 (RPMI-8226) was > 100 µM (inactive) and the GI50 (SF-539) was > 100 µM (inactive). The GI50 (NCI-H460) was > 100 µM (inactive), the GI50 (NCI-H23) was > 100 µM (inactive) and the GI50 (HOP-62) was > 100 µM (inactive). For the same compound, the GI50 (CCRF-CEM) was > 100 µM (inactive), the GI50 (UACC-257) was > 100 µM (inactive) and the GI50 (UO-31) was > 100 µM (inactive). The GI50 (COLO 205) was > 100 µM (inactive), the GI50 (KM12) was > 100 µM (inactive) and the GI50 (CAKI-1) was > 100 µM (inactive). For the same compound, the GI50 (NCI-H522) was > 100 µM (inactive), the GI50 (OVCAR-4) was > 100 µM (inactive) and the GI50 (DLD-1) was > 100 µM (inactive). For the same compound, the GI50 (HT-29) was > 100 µM (inactive), the GI50 (MOLT-4) was > 100 µM (inactive) and the GI50 (LXFL 529) was > 100 µM (inactive). For the same compound, the GI50 (SW-620) was > 100 µM (inactive), the GI50 (OVCAR-8) was > 100 µM (inactive) and the GI50 (SK-MEL-28) was > 100 µM (inactive). The GI50 (TK-10) was > 100 µM (inactive), the GI50 (SF-268) was > 100 µM (inactive) and the GI50 (Malme-3M) was > 100 µM (inactive). The GI50 (SK-MEL-5) was > 100 µM (inactive), the GI50 (XF498) was > 100 µM (inactive) and the GI50 (UACC-62) was > 100 µM (inactive). The GI50 (OVCAR-5) was > 100 µM (inactive), the GI50 (HOP-92) was > 100 µM (inactive) and the GI50 (SNB-78) was > 100 µM (inactive). For the same compound, the GI50 (HOP-18) was > 100 µM (inactive), the GI50 (HCT-116) was > 100 µM (inactive) and the GI50 (SNB-75) was > 100 µM (inactive). The GI50 (SR) was > 100 µM (inactive), the GI50 (U-251) was > 100 µM (inactive) and the GI50 (786-0) was > 100 µM (inactive). The GI50 (K562) was > 100 µM (inactive), the GI50 (M14) was > 100 µM (inactive) and the GI50 (DMS-273) was > 100 µM (inactive). The GI50 (KM-20L2) was > 100 µM (inactive) and the GI50 (HCC 2998) was > 100 µM (inactive).
